Measurements reported in article PMC4772543, “Immune responses to Mycobacterial heat shock protein 70 accompany self-reactivity to human BiP in rheumatoid arthritis” (Scientific Reports, 2016).

What was measured:
HLA-DR4 transgenic mice = assay: Immunization of HLA-DR4 transgenic mice with MycHSP70, serum antibody titers by ELISA; type: in vivo, mouse; conditions: 100 μg MycHSP70 with complete Freund's adjuvant subcutaneously
Method: (§1) Figure 5 Immunization of HLA-DR4 transgenic mice with MycHSP70. (A) HLA-DR4 transgenic mice were immunized with recombinant MycHSP70. Serum anti-MycHSP70 and anti-mouse BiP antibody titers were measured in the 21 days following the first immunization. (B) Splenic CD4+ T cell proliferation from MycHSP70-immunized HLA-DR4 transgenic mice in response to MycHSP70_287–306 and BiP336–355 epitopes. Proliferation was determined by the incorporation of [3]-H thymidine. Data were representative of at least three independent trials. ***p < 0.001.
Serum antibodies were measured by ELISA as previously reported. Briefly, 96-well plates (Thermo Fisher Scientific) were coated with 5 μg/mL of each antigen and dissolved in 0.1 M NaHCO3. […]
(§2) HLA-DR4 transgenic mice were obtained from Taconic, immunized twice (day 0, 14) with 100 μg of MycHSP70 with the same volume of complete Freund’s adjuvant subcutaneously into the tails, and sacrificed on day 21. MACS-purified CD4^+ T cells (1 × 10^5/mL) were cultured with irradiated splenocytes (1 × 10^6/mL) and an antigen (10 μg/mL) in RPMI 1640 medium supplemented with 5% FCS, 2 mM L-glutamine, 100 U/ml penicillin, 100 μg/ml streptomycin, and 5 × 10^−5 M 2-mercaptoethanol in a humidified incubator at 37 °C, 5% CO2, for 72 h. ^3H-thymidine was pulsed to each well, cells were harvested after an 18-hour incubation, and analyzed with a scintillation counter.

[1] = tested on: CD4+ T cells from MycHSP70-immunized HLA-DR4 transgenic mice; assay: Splenic CD4+ T cell proliferation from MycHSP70-immunized HLA-DR4 transgenic mice in response to epitopes; type: cell-based, mouse; conditions: antigen 10 μg/mL, 72 h, irradiated splenocytes, 3H-thymidine
Method: as §1, §2

T cells in RA = conditions: cited from earlier work
Text: MycHSP70 and BiP share 50% of their amino acid sequences, and MycHSP70_287–306 is located at a position corresponding to that of the BiP-derived HLA-DR4 effector epitope. We previously identified two major BiP-derived HLA-DR4 epitopes in RA. […] MycHSP70_287–306 strongly induces proliferation and is regarded as an effector epitope. MycHSP70_287–306 and BiP336–355 share 50% of the amino acids in their core sequences, which bind HLA-DR pockets. They also share the P4V residue, whi ...

Substance	serum antibody titers to MycHSP70 (HLA-DR4 transgenic mice; day 0 and 14, serum day 21)	serum antibody titers to BiP (HLA-DR4 transgenic mice; day 0 and 14, serum day 21, anti-mouse BiP)	CD4+ T cell proliferation in response to peptide [1]	T cell type recognizing the BiP-derived HLA-DR4 epitope (T cells in RA)
MycHSP70: recombinant Mycobacterial heat shock protein 70 (NCBI GenBank AF2122/97)	elevation	elevation		
RSTMKPVQKVLEDSDLKKSD [BiP336–355, reference compound]			significant proliferation	recognized by effector T cells
